# Measurements reported in ChEMBL document CHEMBL1201862, “PubChem BioAssay data set” (2004).
#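 Cultured in 96-well plates, cells were exposed to test compound for 48 hours across five concentrations. At the GI50, growth is halved.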 The source made the active and inactive calls. Rule as the data show it: active = GI50 up to about 1.1 µM and inactive = higher.
# What was measured:
# Test in all cases: NCI-60 cell line screen, 48 h
# [1] = tested on: 786-0
# [2] = tested on: A498
# [3] = tested on: A549
# [4] = tested on: ACHN
# [5] = tested on: BT-549
# [6] = tested on: CAKI-1
# [7] = tested on: CCRF-CEM
# [8] = tested on: COLO 205
# [9] = tested on: DLD-1
# [10] = tested on: DMS-114
# [11] = tested on: DMS-273
# [12] = tested on: DU-145
# [13] = tested on: EKVX
# [14] = tested on: HCC 2998
# [15] = tested on: HCT-116
# [16] = tested on: HCT-15
# [17] = tested on: HL-60
# [18] = tested on: HOP-62
# [19] = tested on: HOP-92
# [20] = tested on: HT-29
# [21] = tested on: Hs-578T
# [22] = tested on: IGROV-1
# [23] = tested on: K562
# [24] = tested on: KM-20L2
# [25] = tested on: KM12
# [26] = tested on: LOX IMVI
# [27] = tested on: LXFL 529
# [28] = tested on: M14
# [29] = tested on: M19-MEL
# [30] = tested on: MCF7
# [31] = tested on: MDA-MB-231
# [32] = tested on: MDA-MB-435
# [33] = tested on: MDA-N
# [34] = tested on: MOLT-4
# [35] = tested on: Malme-3M
# [36] = tested on: NCI-H226
# [37] = tested on: NCI-H23
# [38] = tested on: NCI-H460
# [39] = tested on: NCI-H522
# [40] = tested on: NCI/ADR-RES
# [41] = tested on: OVCAR-3
# [42] = tested on: OVCAR-4
# [43] = tested on: OVCAR-5
# [44] = tested on: OVCAR-8
# [45] = tested on: PC-3
# [46] = tested on: RPMI-8226
# [47] = tested on: RXF 393
# [48] = tested on: SF-268
# [49] = tested on: SF-295
# [50] = tested on: SF-539
# [51] = tested on: SK-MEL-28
# [52] = tested on: SK-MEL-2
# [53] = tested on: SK-MEL-5
# [54] = tested on: SK-OV-3
# [55] = tested on: SN12C
# [56] = tested on: SNB-19
# [57] = tested on: SNB-75
# [58] = tested on: SR
# [59] = tested on: SW-620
# [60] = tested on: T47D
# [61] = tested on: TK-10
# [62] = tested on: U-251
# [63] = tested on: UACC-257
# [64] = tested on: UACC-62
# [65] = tested on: UO-31
structure (smiles),measurement,setting,value
N=C(N)NCCCC(NCc1c2ccccc2nc2ccccc12)C(=O)O (centres undefined),GI50,[1],31.3 µM (inactive)
same,GI50,[2],> 100 µM (inactive)
same,GI50,[3],37.2 µM (inactive)
same,GI50,[4],31.5 µM (inactive)
same,GI50,[5],30.9 µM (inactive)
same,GI50,[6],26.6 µM (inactive)
same,GI50,[7],9.55 µM (inactive)
same,GI50,[8],37.9 µM (inactive)
same,GI50,[9],17.3 µM (inactive)
same,GI50,[10],23.3 µM (inactive)
same,GI50,[11],31.3 µM (inactive)
same,GI50,[12],> 100 µM (inactive)
same,GI50,[13],33.1 µM (inactive)
same,GI50,[14],33.5 µM (inactive)
same,GI50,[15],11.4 µM (inactive)
same,GI50,[16],29.4 µM
same,GI50,[17],11 µM (inactive)
same,GI50,[18],37.1 µM (inactive)
same,GI50,[19],7.93 µM (inactive)
same,GI50,[20],18.9 µM (inactive)
same,GI50,[21],69.7 µM (inactive)
same,GI50,[22],34.7 µM (inactive)
same,GI50,[23],10.1 µM (inactive)
same,GI50,[24],29.4 µM (inactive)
same,GI50,[25],21.6 µM (inactive)
same,GI50,[26],26.2 µM (inactive)
same,GI50,[27],38.5 µM (inactive)
same,GI50,[28],48.1 µM (inactive)
same,GI50,[29],58.7 µM (inactive)
same,GI50,[30],32 µM (inactive)
same,GI50,[31],23.8 µM (inactive)
same,GI50,[32],41.8 µM (inactive)
same,GI50,[33],37.2 µM (inactive)
same,GI50,[34],8 µM (inactive)
same,GI50,[35],> 73.1 µM (inactive)
same,GI50,[36],> 81.8 µM (inactive)
same,GI50,[37],53.1 µM (inactive)
same,GI50,[38],36.1 µM (inactive)
same,GI50,[39],22.9 µM (inactive)
same,GI50,[40],28.5 µM (inactive)
same,GI50,[41],40.9 µM (inactive)
same,GI50,[42],29.2 µM (inactive)
same,GI50,[43],> 100 µM (inactive)
same,GI50,[44],25.7 µM (inactive)
same,GI50,[45],35.2 µM (inactive)
same,GI50,[46],10.4 µM (inactive)
same,GI50,[47],57 µM (inactive)
same,GI50,[48],47.6 µM (inactive)
same,GI50,[49],48 µM (inactive)
same,GI50,[50],33 µM (inactive)
same,GI50,[51],> 66.7 µM (inactive)
same,GI50,[52],41 µM (inactive)
same,GI50,[53],> 41.8 µM (inactive)
same,GI50,[54],53.1 µM (inactive)
same,GI50,[55],39.2 µM (inactive)
same,GI50,[56],48.4 µM (inactive)
same,GI50,[57],45.2 µM (inactive)
same,GI50,[58],14.3 µM (inactive)
same,GI50,[59],25.5 µM (inactive)
same,GI50,[60],36.2 µM (inactive)
same,GI50,[61],49.5 µM (inactive)
same,GI50,[62],47.2 µM (inactive)
same,GI50,[63],33.7 µM (inactive)
same,GI50,[64],31.3 µM (inactive)
same,GI50,[65],23.6 µM (inactive)
OC(COc1cccc2ccccc12)CN1CCOCC1 (centres undefined),GI50,[1],> 100 µM (inactive)
same,GI50,[2],> 100 µM (inactive)
same,GI50,[3],> 100 µM (inactive)
same,GI50,[4],> 100 µM (inactive)
same,GI50,[5],> 100 µM (inactive)
same,GI50,[6],> 100 µM (inactive)
same,GI50,[7],> 100 µM (inactive)
same,GI50,[8],> 100 µM (inactive)
same,GI50,[12],> 100 µM (inactive)
same,GI50,[13],95.1 µM (inactive)
same,GI50,[14],> 100 µM (inactive)
same,GI50,[15],> 100 µM (inactive)
same,GI50,[16],> 100 µM
same,GI50,[17],> 100 µM (inactive)
same,GI50,[18],> 100 µM (inactive)
same,GI50,[19],22.2 µM (inactive)
same,GI50,[20],> 100 µM (inactive)
same,GI50,[21],75.5 µM (inactive)
same,GI50,[22],39.9 µM (inactive)
same,GI50,[23],> 100 µM (inactive)
same,GI50,[25],> 100 µM (inactive)
same,GI50,[26],> 100 µM (inactive)
same,GI50,[28],> 100 µM (inactive)
same,GI50,[30],> 100 µM (inactive)
same,GI50,[31],> 100 µM (inactive)
same,GI50,[32],> 100 µM (inactive)
same,GI50,[33],> 100 µM (inactive)
same,GI50,[34],44.6 µM (inactive)
same,GI50,[35],> 100 µM (inactive)
same,GI50,[36],> 100 µM (inactive)
same,GI50,[37],> 100 µM (inactive)
same,GI50,[38],> 100 µM (inactive)
same,GI50,[39],54 µM (inactive)
same,GI50,[40],> 100 µM (inactive)
same,GI50,[41],> 100 µM (inactive)
same,GI50,[42],> 100 µM (inactive)
same,GI50,[43],> 100 µM (inactive)
same,GI50,[44],> 100 µM (inactive)
same,GI50,[45],> 100 µM (inactive)
same,GI50,[46],> 100 µM (inactive)
same,GI50,[47],> 100 µM (inactive)
same,GI50,[48],> 100 µM (inactive)
same,GI50,[49],> 100 µM (inactive)
same,GI50,[50],> 100 µM (inactive)
same,GI50,[51],> 100 µM (inactive)
same,GI50,[52],> 100 µM (inactive)
same,GI50,[53],> 100 µM (inactive)
same,GI50,[54],> 100 µM (inactive)
same,GI50,[55],> 100 µM (inactive)
same,GI50,[56],> 100 µM (inactive)
same,GI50,[57],> 100 µM (inactive)
same,GI50,[58],> 100 µM (inactive)
same,GI50,[59],> 100 µM (inactive)
same,GI50,[60],> 100 µM (inactive)
same,GI50,[61],> 100 µM (inactive)
same,GI50,[62],> 100 µM (inactive)
same,GI50,[63],> 100 µM (inactive)
same,GI50,[64],> 100 µM (inactive)
same,GI50,[65],> 100 µM (inactive)
